The supplement of paper PMC10307832

Experiments:
Experiment in all cases: relative viability (nuclei count vs DMSO), 5 days (fraction); higher = more cells survive
Pazopanib + OSI-027 = compound: Cc1ccc(Nc2nccc(N(C)c3ccc4c(C)n(C)nc4c3)n2)cc1S(N)(=O)=O [Pazopanib] + COc1cccc2cc(-c3nc([C@H]4CC[C@H](C(=O)O)CC4)n4ncnc(N)c34)[nH]c12 [OSI-027] (partner 0.5 µM)
Procedure, shortened: (§1)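 For relative viability, nuclei counts in treated wells were divided by those in vehicle wells. Lung cancer cell lines had been pin-tool dosed in 1536-well plates the day after seeding and cultured for 5 days, then fixed and stained in one step (final 0.05% Triton X-100, 1% formaldehyde, 1 ug/ml Hoechst) and imaged at 4×. Doses were one drug alone or a fixed anchor-drug dose plus five library-drug doses (not always all listed) in √10 steps, and values are duplicate-plate medians.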

Ponatinib + Lapatinib = compound: Cc1ccc(C(=O)Nc2ccc(CN3CCN(C)CC3)c(C(F)(F)F)c2)cc1C#Cc1cnc2cccnn12 [Ponatinib] + CS(=O)(=O)CCNCc1ccc(-c2ccc3ncnc(Nc4ccc(OCc5cccc(F)c5)c(Cl)c4)c3c2)o1 [Lapatinib] (partner 2 µM)
Procedure, shortened: as §1

Ponatinib + Foretinib = compound: Cc1ccc(C(=O)Nc2ccc(CN3CCN(C)CC3)c(C(F)(F)F)c2)cc1C#Cc1cnc2cccnn12 [Ponatinib] + COc1cc2c(Oc3ccc(NC(=O)C4(C(=O)Nc5ccc(F)cc5)CC4)cc3F)ccnc2cc1OCCCN1CCOCC1 [Foretinib] (partner 0.25 µM)
Procedure, shortened: as §1

Pazopanib + Olaparib = compound: Cc1ccc(Nc2nccc(N(C)c3ccc4c(C)n(C)nc4c3)n2)cc1S(N)(=O)=O [Pazopanib] + O=C(c1cc(Cc2n[nH]c(=O)c3ccccc23)ccc1F)N1CCN(C(=O)C2CC2)CC1 [Olaparib] (partner 8 µM)
Procedure, shortened: as §1

| Cell Line | relative viability (Pazopanib + OSI-027; first compound 0.01 µM) | relative viability (Pazopanib + OSI-027; first compound 0.03162 µM) | relative viability (Pazopanib + OSI-027; first compound 0.1 µM) | relative viability (Pazopanib + OSI-027; first compound 0.3162 µM) | relative viability (Pazopanib + OSI-027; first compound 1 µM) | relative viability (Ponatinib + Lapatinib; first compound 0.002 µM) | relative viability (Ponatinib + Lapatinib; first compound 0.006325 µM) | relative viability (Ponatinib + Lapatinib; first compound 0.06325 µM) | relative viability (Ponatinib + Lapatinib; first compound 0.2 µM) | relative viability (Ponatinib + Foretinib; first compound 0.002 µM) | relative viability (Ponatinib + Foretinib; first compound 0.006325 µM) | relative viability (Ponatinib + Foretinib; first compound 0.06325 µM) | relative viability (Ponatinib + Foretinib; first compound 0.2 µM) | relative viability (Pazopanib + Olaparib; first compound 0.01 µM) | relative viability (Pazopanib + Olaparib; first compound 0.03162 µM) | relative viability (Pazopanib + Olaparib; first compound 0.1 µM) | relative viability (Pazopanib + Olaparib; first compound 0.3162 µM) | relative viability (Pazopanib + Olaparib; first compound 1 µM) |
| --- | --- | --- | --- | --- | --- | --- | --- | --- | --- | --- | --- | --- | --- | --- | --- | --- | --- | --- |
| NCI-H1755 | 0.693 | 0.653 | 0.671 | 0.678 | 0.632 | 0.977 | 1.08 | 1.06 | 0.943 | 0.818 | 0.913 | 0.92 | 0.804 | 0.798 | 0.837 | 0.866 | 0.882 | 0.944 |
| NCI-H1793 | – | 0.254 | 0.274 | 0.354 | 0.273 | 0.645 | 0.786 | 0.645 | 0.459 | 0.749 | 0.696 | 0.707 | 0.539 | – | 0.8 | 1.03 | 0.906 | 1.05 |
| NCI-H1915 | 0.61 | 0.659 | 0.626 | 0.588 | 0.64 | 0.908 | 0.95 | 0.986 | 1.02 | 1.03 | 1.12 | 0.996 | 1.01 | 0.257 | 0.241 | 0.275 | 0.229 | 0.227 |
| NCI-H1944 | – | 0.422 | 0.46 | 0.441 | 0.48 | 0.775 | 0.807 | 0.915 | 0.849 | 0.876 | 0.856 | 1.05 | 0.859 | 0.425 | 0.353 | 0.424 | 0.418 | 0.475 |
| NCI-H1975 | 0.677 | 0.723 | 0.861 | 0.735 | 0.734 | 0.811 | 0.817 | 1.14 | 1.03 | 0.911 | 0.955 | 1.03 | 1.01 | 0.76 | 0.829 | 0.775 | 0.785 | 0.756 |
| NCI-H1993 | – | 0.603 | 0.599 | 0.479 | 0.461 | 0.885 | 0.78 | 0.872 | 0.872 | 0.722 | 0.778 | 0.973 | 0.76 | – | 1.03 | 1.21 | 1.09 | 1.15 |
| NCI-H2009 | 0.576 | 0.622 | 0.566 | 0.56 | 0.44 | 0.865 | 0.887 | 1.08 | 0.946 | 1.18 | 1.2 | 1.22 | 1.17 | 0.746 | 0.699 | 0.686 | 0.677 | 0.456 |
| NCI-H2023 | 0.417 | 0.425 | 0.35 | 0.42 | 0.536 | 0.81 | 0.861 | 0.958 | 0.642 | 0.778 | 0.89 | 0.962 | 0.657 | 0.441 | 0.487 | 0.516 | 0.466 | 0.45 |
| NCI-H2085 | 0.817 | 0.782 | 0.752 | 0.719 | 0.787 | 0.733 | 0.815 | 0.843 | 0.879 | 0.989 | 0.836 | 0.879 | 0.832 | 0.821 | 0.759 | 0.796 | 0.704 | 0.713 |
| NCI-H2087 | 0.502 | 0.567 | 0.489 | 0.553 | 0.487 | 0.708 | 0.781 | 0.876 | 0.672 | 1.12 | 0.864 | 1.01 | 0.868 | 0.72 | 0.7 | 0.745 | 0.549 | 0.568 |
| NCI-H2126 | 0.643 | 0.612 | 0.68 | 0.718 | 0.719 | 0.729 | 0.766 | 0.888 | 0.718 | 1.12 | 1.29 | 1.34 | 1.07 | 0.825 | 0.908 | 0.988 | 0.946 | 0.887 |
| NCI-H2170 | 0.728 | 0.695 | 0.719 | 0.703 | 0.655 | 0.281 | 0.295 | 0.289 | 0.298 | 0.953 | 0.898 | 0.966 | 0.927 | 0.669 | 0.561 | 0.693 | 0.547 | 0.56 |
| NCI-H2228 | 0.518 | 0.495 | 0.532 | 0.507 | 0.655 | 1.07 | 1.51 | 1.15 | 1.13 | 0.656 | 0.83 | 0.907 | 0.791 | 0.829 | 0.492 | 0.611 | 0.574 | 0.48 |
| NCI-H2347 | 0.425 | 0.465 | 0.402 | 0.405 | 0.344 | 0.951 | 0.908 | 0.94 | 0.93 | – | 0.818 | 1.38 | 1.01 | 0.541 | 0.609 | 0.538 | 0.575 | 0.558 |
| NCI-H2405 | 0.628 | 0.67 | 0.72 | 0.656 | 0.736 | 0.928 | 1.03 | 1.08 | 0.877 | 1 | 1.06 | 1.04 | 0.935 | 0.824 | 0.89 | 0.958 | 0.907 | 0.983 |
| NCI-H3122 | 0.985 | 0.958 | 1.02 | 1.05 | 1.26 | 0.993 | 1 | 1.01 | 1.07 | 0.977 | 0.981 | 1 | 0.943 | 0.7 | 0.572 | 0.607 | 0.636 | 0.599 |
| PC-3 [JPC-3] | 0.929 | 0.806 | 0.747 | 0.756 | 0.661 | 0.43 | 0.45 | 0.492 | 0.502 | 0.947 | 1.01 | 1.15 | 1.03 | – | 1.15 | 1.18 | 1.11 | 1.02 |
| PC-14 | 0.871 | 0.937 | 1.06 | 0.849 | 1.01 | 0.313 | 0.363 | 0.384 | 0.386 | 0.981 | 1.04 | 1.14 | 0.975 | 0.335 | 0.329 | 0.371 | 0.235 | 0.319 |
